Assay results reported in paper PMC8041284, “Tunable Methacrylamides for Covalent Ligand Directed Release Chemistry” (Journal of the American Chemical Society, 2021).
*1 amine or outer side, *2 acyl side, *3 side chain or, on linkers, in order; H or OH if unused. Where a SMILES comes first, the peptide text is derived from it. Bridges are numbered along the chain shown (N, C = ends). Roman numbers before positions name the chains, in order. [ ]: non-standard residue; d: D form. Hexamethylenediamine = C(CCCN[*:2])CCN[*:1]; Dip = N[C@H](C(=O)O)C(c1ccccc1)c1ccccc1; Chg = N[C@H](C(=O)O)C1CCCCC1; NMeA = CN[C@@H](C)C(=O)O

Target: BTK (Homo sapiens, UniProt Q06187)
Sequence (Q06187 402-655 limits assumed): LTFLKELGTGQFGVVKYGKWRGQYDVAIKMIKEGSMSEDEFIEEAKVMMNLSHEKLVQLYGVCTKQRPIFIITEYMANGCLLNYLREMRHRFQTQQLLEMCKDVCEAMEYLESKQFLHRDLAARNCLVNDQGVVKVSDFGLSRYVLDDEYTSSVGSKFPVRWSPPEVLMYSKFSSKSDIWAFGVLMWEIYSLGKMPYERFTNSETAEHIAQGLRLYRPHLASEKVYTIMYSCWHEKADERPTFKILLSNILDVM
Assay: biochemical
Settings: read-out: BTK inhibition (%), 0.75 uM BTK, […] probe 3l, 15 min preincubation

In the case of `Cc1ccc(C(=O)Nc2ccc(CN3CCN(C)CC3)c(C(F)(F)F)c2)cc1C#Cc1cnc2[nH]ncc2c1` [PCM-0215209], the inhibition at 10 µM is reported as 114%.

`CCOC(=O)NCCCC(=O)NCCc1ccccc1` [PCM-0215356] was tested, and the inhibition at 10 µM was -17%.

`CCN(CC)CCCCNc1ncc2cc(-c3cc(OC)cc(OC)c3)c(NC(=O)NC(C)(C)C)nc2n1` [PCM-0095037] showed an inhibition at 10 µM of -9%.

Compound `COc1cc2ncnc(Nc3ccc(O)c(Br)c3)c2cc1OC` [PCM-0095533] has an inhibition at 10 µM of 33.8%.

In the case of `COc1cnc(NS(=O)(=O)c2ccc(N)cc2)nc1` [PCM-0086492], the inhibition at 10 µM is reported as 5.4%.

Work on `c1ccc(CNCc2ccc(CN3CCCNCCNCCCNCC3)cc2)nc1` [PCM-0215781] yielded an inhibition at 10 µM of -2.6%.

`O[C@@H](COc1cccc2ncccc12)CN1CCN(C2c3ccccc3[C@@H]3[C@H](c4ccccc42)C3(F)F)CC1` (some centres unmarked) [PCM-0095161] gave an inhibition at 10 µM of 103%.

`CC1CCc2cc(F)cc3c(=O)c(C(=O)O)cn1c23` (centres unmarked) [PCM-0085858] was tested, and the inhibition at 10 µM was -10.1%.

`FC(F)c1nc2ccccc2n1-c1nc(N2CCOCC2)nc(N2CCOCC2)n1` [PCM-0095021] gave an inhibition at 10 µM of 16.6%.

Work on `CN1CC(O)c2cc(N=NC(N)=O)c(O)cc21` (centres unmarked) [PCM-0216016] yielded an inhibition at 10 µM of 28.3%.

Work on `N#CC(c1ccc(Cl)cc1)c1c(Cl)cc(-n2ncc(=O)[nH]c2=O)cc1Cl` (centres unmarked) [PCM-0086206] yielded an inhibition at 10 µM of -0.8%.

`O=C(c1ccc(/C=C/c2n[nH]c3ccccc23)cc1)N1CCNCC1` [PCM-0095209] was tested, and the inhibition at 10 µM was 46.2%.

`CCCCCCCCCCCCCC(=O)O` [PCM-0216589] gave an inhibition at 10 µM of 1.7%.

In the case of `CC(C)OC(=O)CCC/C=C\C[C@@H]1[C@@H](/C=C/[C@@H](O)COc2cccc(C(F)(F)F)c2)[C@H](O)C[C@@H]1O` [PCM-0215893], the inhibition at 10 µM is reported as -28%.

For `CCN=C1N[C@@H]2[C@@H](O)[C@H](O)[C@@H](CO)O[C@@H]2S1` [PCM-0215232], the inhibition at 10 µM was 3.1%.

Work on `Cc1cc(F)c(Nc2ncnc3cc(OCc4ccccc4)ccc23)cc1O` [PCM-0095349] yielded an inhibition at 10 µM of 46.9%.

`O=C(O)C1=C(CSc2nnnn2CS(=O)(=O)O)CS[C@@H]2[C@H](NC(=O)[C@H](O)c3ccccc3)C(=O)N12` [PCM-0214888] gave an inhibition at 10 µM of 3.9%.

`C/C=C(/C)C(=O)O[C@H]1[C@@H](OC(=O)CC(C)C)c2c(ccc3ccc(=O)oc23)OC1(C)C` [PCM-0216428] showed an inhibition at 10 µM of 7.7%.

For `Cc1nccn1CCC(C(N)=O)(c1ccccc1)c1ccccc1` [PCM-0216555], the inhibition at 10 µM was 1.5%.

`CN1CCN(Cc2ccc(NC(=O)Nc3ccc(Oc4ccnc(N)n4)cc3)cc2C(F)(F)F)CC1` [PCM-0215587] gave an inhibition at 10 µM of 31%.

In the case of `CCCCCCCCN=c1ccn(CCCCCCCCCCn2ccc(=NCCCCCCCC)cc2)cc1` [PCM-0215117], the inhibition at 10 µM is reported as -64.1%.

In the case of `O=c1ncn2nc(Sc3ccc(F)cc3F)ccc2c1-c1c(Cl)cccc1Cl` [PCM-0214781], the inhibition at 10 µM is reported as 40%.

`CN(C)CCCN1c2ccccc2Sc2ccc(Cl)cc21` [PCM-0064436] was tested, and the inhibition at 10 µM was -16.3%.

`Cc1ncc([N+](=O)[O-])n1C` [PCM-0216192] was tested, and the inhibition at 10 µM was -21.4%.

Work on `NS(=O)(=O)Cc1noc2ccccc12` [PCM-0214625] yielded an inhibition at 10 µM of -14.8%.

In the case of `Nc1[nH]c(=O)nc2c1ncn2[C@@H]1O[C@H](CO)[C@@H](O)[C@H]1O` [PCM-0216517], the inhibition at 10 µM is reported as -11.6%.

`O=C1C[C@@H](c2ccccc2)Oc2cc(O)cc(O)c21` [PCM-0214944] showed an inhibition at 10 µM of 11.7%.

`CCOc1cc(N)c(Cl)cc1C(=O)NCC1CN(Cc2ccc(F)cc2)CCO1` (centres unmarked) [PCM-0095041] was tested, and the inhibition at 10 µM was -14%.

`Cc1ccc(S(=O)(=O)/C=C/C#N)cc1` [PCM-0065564] gave an inhibition at 10 µM of -12.4%.

For `CC1(C)CC[C@]2(C(=O)O)[C@H](O)C[C@]3(C)C(=CC[C@@H]4[C@@]5(C)CC[C@H](O)[C@@](C)(C=O)[C@@H]5CC[C@]43C)[C@@H]2C1` [PCM-0216608], the inhibition at 10 µM was -8.5%.

Work on `O=C(Nc1ccc(O)cc1)c1ccccc1O` [PCM-0214902] yielded an inhibition at 10 µM of -10.9%.

Work on `C=C(c1ccc(C(=O)O)cc1)c1cc2c(cc1C)C(C)(C)CCC2(C)C` [PCM-0095260] yielded an inhibition at 10 µM of 14%.

For `CC(C)c1cc2c(c(O)c1O)[C@@]13CCCC(C)(C)[C@@H]1C[C@@H]2OC3=O` [PCM-0216410], the inhibition at 10 µM was 10.8%.

With `CC(C)=CCC[C@](C)(O[C@@H]1O[C@H](CO)[C@@H](O)[C@H](O)[C@H]1O)[C@H]1CC[C@]2(C)[C@@H]1[C@H](O)C[C@@H]1[C@@]3(C)CC[C@H](O)C(C)(C)[C@@H]3[C@@H](O[C@@H]3O[C@H](CO)[C@@H](O)[C@H](O)[C@H]3O[C@@H]3O[C@@H](C)[C@H](O)[C@@H](O)[C@H]3O)C[C@]12C` [PCM-0214989] the inhibition at 10 µM was -8.6%.

`CC1(N)CCN(c2cnc(-c3cccc(Cl)c3Cl)c(N)n2)CC1` [PCM-0215991] was tested, and the inhibition at 10 µM was 14.7%.

Work on `CC(C)c1ccc(CO)cc1` [PCM-0216002] yielded an inhibition at 10 µM of -6.2%.

For `Cc1cn(-c2cc(NC(=O)c3ccc(C)c(Nc4nccc(-c5cnccn5)n4)c3)cc(C(F)(F)F)c2)cn1` [PCM-0215584], the inhibition at 10 µM was -4.1%.

`C=CC(=O)Nc1ccc2ncnc(Nc3ccc(OCc4cccc(F)c4)c(Cl)c3)c2c1` [PCM-0095229] was tested, and the inhibition at 10 µM was 110%.

`C[C@@H]1O[C@@H](O[C@H]2[C@H](Oc3cc(O)c(C(=O)CCc4ccc(O)cc4)c(O)c3)O[C@H](CO)[C@@H](O)[C@@H]2O)[C@H](O)[C@H](O)[C@H]1O` [PCM-0094838] showed an inhibition at 10 µM of 14.8%.

Compound `CC(=O)O[C@@H]1C[C@@H]2CC[C@@]1(C)C2(C)C` [PCM-0215932] has an inhibition at 10 µM of -21.4%.

Work on `CN[C@@H](C)C(=O)N[C@H](C(=O)N1CCC[C@H]1C(=O)N[C@H](C(=O)NCCCCCCNC(=O)[C@@H](NC(=O)[C@@H]1CCCN1C(=O)[C@@H](NC(=O)[C@H](C)NC)C1CCCCC1)C(c1ccccc1)c1ccccc1)C(c1ccccc1)c1ccccc1)C1CCCCC1` [PCM-0214574] (I: H-[NMeA][Chg]P[Dip] / II: H-[NMeA][Chg]P[Dip]; linker I:C-II:C via Hexamethylenediamine) yielded an inhibition at 10 µM of -1.5%.

`CC(=O)C1=C(O)C=C2Oc3c(C(C)=O)c(O)c(C)c(O)c3[C@@]2(C)C1=O` [PCM-0094808] was tested, and the inhibition at 10 µM was 17.1%.

`Cc1ccccc1N=Nc1ccc(NC(=O)c2ccnn2C)c(C)c1` [PCM-0215441] showed an inhibition at 10 µM of 6.9%.

`Cc1cccc(-c2[nH]ncc2-c2ccc3ncccc3n2)n1` [PCM-0065277] showed an inhibition at 10 µM of 13.9%.

With `COCC(=O)Nc1cc(Sc2ccccc2)ccc1N=C(NC(=O)OC)NC(=O)OC` [PCM-0216017] the inhibition at 10 µM was 11.6%.

`Nc1ccc(C(=O)Nc2cccc(-c3nc(N4CCOCC4)c4oc5ncccc5c4n3)c2)cn1` [PCM-0094950] gave an inhibition at 10 µM of -4.8%.

In the case of `COc1cc(-c2oc3cc(O)cc(O)c3c(=O)c2O)ccc1O` [PCM-0216402], the inhibition at 10 µM is reported as 73.4%.

With `NC(=O)c1cccnc1` [PCM-0085961] the inhibition at 10 µM was 12.5%.

Work on `C[C@@H]1O[C@@H](O[C@H]2[C@H](O[C@H]3CC[C@@]4(C)[C@@H](CC[C@]5(C)[C@@H]4CC=C4[C@@H]6CC(C)(C)CC[C@]6(C(=O)O[C@@H]6O[C@H](CO[C@@H]7O[C@H](CO)[C@@H](O)[C@H](O)[C@H]7O)[C@@H](O)[C@H](O)[C@H]6O)CC[C@]45C)[C@]3(C)CO)OC[C@H](O)[C@@H]2O)[C@H](O)[C@H](O[C@@H]2O[C@H](CO)[C@@H](O)[C@H](O)[C@H]2O)[C@H]1O` [PCM-0216447] yielded an inhibition at 10 µM of -21.6%.

For `CCC1=C(C)CN(C(=O)NCCc2ccc(S(=O)(=O)NC(=O)NC3CCC(C)CC3)cc2)C1=O` (centres unmarked) [PCM-0086384], the inhibition at 10 µM was 8.6%.
